According to patent publication US20220411471A1, “CELL-PERMEABLE CYCLIC PEPTIDES AND USES THEREOF” (Unnatural Products Inc., priority 2019, published 2022):
Non-standard residues stand in square brackets, D forms with d. Residues, ends and D or L forms follow the SMILES beside them. ξ: configuration not given here. Ala(4-thiazolyl) = N[C@@H](Cc1cscn1)C(=O)O; NMePhe(4-F) = CN[C@@H](Cc1ccc(F)cc1)C(=O)O; Phe(4-Cl) = N[C@@H](Cc1ccc(Cl)cc1)C(=O)O; Phe(4-F) = N[C@@H](Cc1ccc(F)cc1)C(=O)O; NMeThr(3ξ) = CN[C@H](C(=O)O)C(C)O; NMeF = CN[C@@H](Cc1ccccc1)C(=O)O; hSer = N[C@@H](CCO)C(=O)O; NMeA = CN[C@@H](C)C(=O)O; dNMeA = CN[C@H](C)C(=O)O; Nme = COCCNCC(=O)O

System: MOLM-13 cells
Test: Cellular fluorescence assay (resazurin, 72 hours)
Type: cell-based
Protocol: MOLM-13 cells were grown in suspension in T75 flasks in RPMI medium with 10% fetal bovine serum (FBS) at 37° C. with 5% CO2. 40 μL of MOLM-13 cells were plated into columns 1-22 of black, clear bottom, 384 well plates at a density of 1,500 cells per well in PRMI with 10% FBS. Columns 23 and 24 were filled with 40 μL of media as a positive control. 100 nL of compounds dissolved in DMSO were pin transferred into columns 3-22 of the 384 well plate. Columns 1 and 2 served as negative control wells. Plates were incubated for 72 hours at 37° C. with 5% CO2. After incubation, the cells were given 10 μL of 2 mM Resazurin in RPMI with 10% FBS and incubated for 3 hours. The fluorescence intensity was read on a Molecular Devices SpectraMax i3x plate reader (Excitation wavelength=535 nm, Emission wavelength=585 nm).

SMILES	IC50
COCC[C@@H]1NC(=O)[C@H]2CCCN2C(=O)[C@H](Cc2ccccc2)N(C)C(=O)[C@H](Cc2ccc(Cl)cc2)NC(=O)[C@H]([C@@H](C)O)NC(=O)[C@H](Cc2ccc(F)cc2)NC(=O)CN(CCOC)C(=O)[C@@H](C)N(C)C(=O)[C@H](Cc2cscn2)NC(=O)[C@H](C)N(C)C1=O [Compound 39, COCC[C@@H]1NC(=O)[C@H]2CCCN2C(=O)[C@H](CC2=CC=CC=C2)N(C)C(=O)[C@H](CC2=CC=C(Cl)C=C2)NC(=O)[C@@H](NC(=O)[C@H](CC2=CC=C(F)C=C2)NC(=O)CN(CCOC)C(=O)[C@@H](C)N(C)C(=O)[C@H](CC2=CSC=N2)NC(=O)[C@H](C)N(C)C1=O)C(C)O] (cyclo([hSer](Me)[NMeA][Ala(4-thiazolyl)][dNMeA][Nme][Phe(4-F)]T[Phe(4-Cl)][NMeF][dP]))	0.1 to 0.15 µM
COCC[C@@H]1NC(=O)[C@H]2CCCN2C(=O)[C@H](Cc2ccc(F)cc2)N(C)C(=O)[C@H](Cc2ccc(Cl)cc2)NC(=O)[C@H](C(C)O)N(C)C(=O)[C@H](Cc2ccc(F)cc2)NC(=O)CN(CCOC)C(=O)[C@@H](C)N(C)C(=O)[C@H](Cc2cscn2)NC(=O)[C@H](C)N(C)C1=O (some centres unmarked) [Compound 45, COCC[C@@H]1NC(=O)[C@H]2CCCN2C(=O)[C@H](Cc2ccc(F)cc2)N(C)C(=O)[C@H](Cc2ccc(Cl)cc2)NC(=O)[C@H]([C@@@H](C)O)N(C)C(=O)[C@H](Cc2ccc(F)cc2)NC(=O)CN(CCOC)C(=O)[C@@H](C)N(C)C(=O)[C@H](Cc2cscn2)NC(=O)[C@H](C)N(C)C1=O] (cyclo([Ala(4-thiazolyl)][dNMeA][Nme][Phe(4-F)][NMeThr(3ξ)][Phe(4-Cl)][NMePhe(4-F)][dP][hSer](Me)[NMeA]))	0.05 to 0.1 µM
